Source: US20250288645A1, “USE OF GsMTx4 AND GsMTx4 CONJUGATES TO IMPROVE RECOVERY FROM JOINT INJURY” (priority 2023, published 2025)
No end group written: not given here.

Columns and labels:
[1] = tested on: Piezo2; assay: Bilateral ACL-injury mouse model: Piezo2 expression in CGRP+ pain nerves; assay type: in vivo; settings: ACL-I mice, GsMTx4 post-injury, versus saline-treated ACL-I mice
From the text: Some of the studies reported below involved a murine model of animals which were subjected to trauma by injuring an ACL (as an exemplar of injury to any of the four knee ligaments). Without wishing to be bound by theory, it is believed that injury to the ACL changes the mechanical loading on the joint, promoting imbalanced metabolism in articular cartilage, and promoting the development of post-traumatic OA, or “PTOA.” Animals were divided into four cohorts: the first group, the controls, were not subjected to trauma, the second group underwent bilateral ACL injury, but no further treatment, the third group underwent bilateral ACL injury, and was then administered saline solution at days 3, 10 and 17 post-injury, and the fourth group underwent bilateral ACL injury, and was then administered GsMTx4 peptide at days 3, 10 and 17 post-injury. The animals were evaluated by gait analysis, a cell vulnerability assay, and a histological evaluation/immunofluorescence assay. In one aspect, the assays compared the expression of Piezo1 and Piezo2 in chondrocytes from injured joints, from uninjured controls, and from injured joints injured and then treated with GsMTx4 and from joints that were injured and then treated only with saline solution. The study also looked at calcitonin gene-related peptide (“CGRP”)-containing (“CGRP^+”) nerve endings. […]

[2] = tested on: mice; assay: Gait analysis after bilateral ACL injury; assay type: in vivo, mouse; settings: weekly subcutaneous injections, after 3 weeks
Protocol: This Example discusses studies in which mice were first divided into three groups: Group 1, control animals, were not injured, but were injected with GsMTx4, Group 2 mice were given a bilateral ACL injury in their hind legs, and then given weekly subcutaneous injections of saline, and (3) Group 3 mice were given a bilateral ACL injury in their hind legs, and then given weekly subcutaneous injections of GsMTx4.
After 3 weeks, the gait of the animals in each group was studied for the following metrics: hind paw stride length, hind paw average speed, hind paw swing speed, and step cycle.

[3] = tested on: C57Bl/6 male mice; assay: Massive rotator cuff tear (RCT) mouse model: humeral head cartilage histology; assay type: in vivo
Protocol: A massive rotator cuff tear (RCT) model was performed by surgical ligation of the supraspinatus and infraspinatus tendons of the right shoulder of 14-week-old C57Bl/6 male and female mice through a deltoid splitting approach. Mice were anesthetized with 2% isoflurane gas mixed with oxygen. A single dose of buprenorphine SR (0.5 mg/kg) was injected subcutaneously at the nape. The right shoulder was prepped using a chemical hair removal agent, followed by betadine solution for 2 minutes and a rinse with 70% ethanol. The remaining steps were performed under sterile technique. A #11 scalpel blade was used to sharply incise the skin and subcutaneous tissues in a longitudinal incision over the palpable border of the lateral shoulder. The deltoid fascia and muscle were sharply incised in line with the skin incision with care not to dissect distally along the humerus to protect the axillary nerve. A pair of forceps were then used to grasp the proximal humerus and pull laterally to place the glenohumeral joint on gentle tension. A 25G needle was passed under the supraspinatus and infraspinatus tendons. […] Animals were monitored daily for 3 days post-operatively, and no adverse events were noted. […]
Humeri were harvested and chondrocyte mechano-vulnerability was quantified before and after 2 mJ impact according to methods above. […]

GsMTx4 (GCLEFWWKCNPNDDKCCRPKLKCSKLFKLCNFSF-NH2; ends and bridges not checked; listed as Grammostola spatulata)
Piezo2 expression in CGRP^+ pain nerves [1]: decreased Piezo2 expression in CGRP^+ pain nerves
gait (hind paw stride length, hind paw average speed, hind paw swing speed, step cycle; FIG. 3) [2]: the same or almost the same as that of mice that had not had an ACL injured
average humeral head cartilage thickness ([3]; RC ligation, subcutaneous twice weekly, 14 weeks post-operatively, GsMTx4 versus saline or contralateral control joint): no difference in average humeral head cartilage thickness
cartilage degeneration of shoulder ([3]; RCT, treated post-injury, versus animals not treated post-injury with GsMTx4): reduced cartilage degeneration
